US20180044418A1, “COMBINATION OF A PD-1 ANTAGONIST AND VORINOSTAT FOR TREATING CANCER” (Merck Sharp & Dohme Corp., priority 2016, published 2018)

Columns and labels:
[1] = tested on: RENCA cells; assay: Anti-tumor response in RENCA tumor-bearing mice
Description: (§1) This experiment compared the anti-tumor response of tumor-bearing mice to treatment with one of three regimens: monotherapy with a murine anti-mouse PD-1 monoclonal antibody (anti-PD-1), monotherapy with Vorinostat and combination therapy with these two agents administered concurrently.
Tumor-bearing mice for this study were initiated by implanting 1×10^6 log-phase and sub-confluent RENCA cells on the right lower dorsal flank of 7-8 week old female BALB/cmice with an average body weight of 19 grams. When the mean tumor volume in these mice reached ˜100 cubic mm (65mm^3-140 mm^3) (FIG. 9(A)), the tumor-bearing mice were randomized to 4 treatment groups of 12 mice per group: (1) Isotype control +Vehicle control group;(2) Anti-PD-1 +Vehicle control; (3) Vorinostat+Isotype control and; (4) Anti-PD-1 +Vorinostat. A monoclonal antibody of murine isotype IgG1 against murine PD-1 and isotype control were obtained from internal sources. The isotype control was a mouse monoclonal antibody specific for adenoviral hexon 25 and was of the isotype IgG1. The formulations for each reagent was as follows: Isotype contro1:75 mM NaCl, 10 mM sodium phosphate, 3% sucrose, pH7.3; anti-PD-1: 20 mM sodium acetate, 7% sucrose, pH5.5; and Vorinostat vehicle: 0.5% HPC (hydroxypropylcellulose) with 0.002% SDS (sodium dodecyl sulfate) in sterile water. Anti-PD-1 was administered to treatment groups 2 and 4 at 5 mg/kg i.p. every 5 days for each of 5 cycles. Vorinostat was administered to treatment groups 3 and 4 at 150 mg/kg every day for 29 days.

[2] = tested on: CT-26 cells; assay: Anti-tumor response in CT-26 tumor-bearing mice; type: in vivo, BALB/cAnN mice
Description: as §1
Tumor-bearing mice for this study were initiated by implanting 3×10^5 log-phase and sub-confluent CT-26 cells on the right lower dorsal flank of 7-8 week old female BALB/cAnN mice with an average body weight of 18 grams. When the mean tumor volume in these mice reached ˜100 cubic mm (60mm^3-150 mm^3) (FIG. 1(A)), the tumor-bearing mice were randomized to 4 treatment groups of 12 mice per group: (1) Isotype control+Vehicle control group;(2) anti-PD-1 +Vehicle control; (3) Vorinostat +Isotype control and; (4) anti-PD-1+Vorinostat. A monoclonal antibody of murine isotype IgG1 against murine PD-1 and isotype control were obtained from internal sources. The isotype control was a mouse monoclonal antibody specific for adenoviral hexon 25 and was of the isotype IgG1. […] Anti-PD-1 was administered to treatment groups 2 and 4 at 10 mg/kg i.p. every 5 days for each of 5 cycles. Vorinostat was administered to treatment groups 3 and 4 at 150 mg/kg every day for 27 days.

Question: How did the “effect of Vorinostat on anti-PD-1 anti-tumor activity in the combination treatment arm” value [1] turn out when `O=C(CCCCCCC(=O)Nc1ccccc1)NO` [Vorinostat, suberoylanilide hydroxamic acid] was run?
Answer: The value was “did not demonstrate antagonistic effects”.

Question: And the survival ([1]; at Day 30, FIG. 9(B))?
Answer: Its survival is 23%.

Question: And the “complete regressions (CRs)” value ([1]; monotherapy arms, measured through Day 29)?
Answer: Its value is “No CRs”.

Question: And the “effect of Vorinostat on anti-PD-1 anti-tumor activity in the combination treatment arm” value [2]?
Answer: Its value is “did not demonstrate antagonistic effects”.

Question: And the “complete regressions (CR)” value ([2]; 12 per group, measured through Day 29, anti-PD-1 10 mg/kg i.p. every 5 days x5, Vorinostat 150 mg/kg every day for 27 days)?
Answer: Its value is “No CRs”.

Question: What about the survival ([2]; at Day 30, FIG. 8(B)) of the same compound?
Answer: Its survival is 10%.
